The target of one test is T1, PPARα (Rattus norvegicus, UniProt P37230).
T1 construct: H4IIE rat hepatoma cell line was obtained from ATCC; host or cells: H4IIE rat hepatoma cells
T1 sequence (P37230 1-468): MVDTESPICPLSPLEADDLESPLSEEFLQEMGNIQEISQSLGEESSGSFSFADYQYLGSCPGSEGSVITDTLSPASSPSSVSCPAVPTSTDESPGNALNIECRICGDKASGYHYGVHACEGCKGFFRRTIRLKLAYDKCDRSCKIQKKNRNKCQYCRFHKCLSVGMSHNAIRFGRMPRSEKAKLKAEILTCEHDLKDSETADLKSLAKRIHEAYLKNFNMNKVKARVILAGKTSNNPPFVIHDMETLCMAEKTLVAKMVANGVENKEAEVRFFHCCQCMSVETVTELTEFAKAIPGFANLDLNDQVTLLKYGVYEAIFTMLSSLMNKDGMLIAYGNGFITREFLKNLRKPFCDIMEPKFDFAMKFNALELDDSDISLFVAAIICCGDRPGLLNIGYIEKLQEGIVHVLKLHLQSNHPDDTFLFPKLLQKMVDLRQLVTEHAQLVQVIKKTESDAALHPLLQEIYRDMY
The test is described as follows: HD bDNA Assay (HD gene induction). The format is cell-based. How it is done: HD bDNA Assay H4IIE rat hepatoma cell line was obtained from ATCC. Cells were cultured in 175 cm^2 tissue culture flask or seeded in 96-well plate with (high serum content, 10% fetal bovine serum and 10% calf serum) culture medium and maintained at 37° C. and 5% CO2 throughout study. Twenty-four hours after the initial seeding of the 96-well plate by hand (approximate 100,000/well), the HD gene induction assay was initiated. Media was removed and replaced with 100 ul of low serum culture media (5% charcoal/dextran treated calf serum) containing vehicle (DMSO) or test compounds or standard. Cells returned to incubator for 24 hours culture. At the termination of the challenge, 50 ul lysis buffer with HD gene specific CE, LE, BL probes was added directly into each well to initiate the bDNA HD mRNA assay. The branched DNA assay was performed according to the manufacturer's protocol (Bayer Diagnostics; Emeryville. Calif.). At the end of the assay, the luminescence was quantitated in Dynex MLX microtiter plate luminometer. EC50's were determined by non-linear regression with a sigmoidal fit utilizing Graphpad Prism.

The target of the next test is T2, PPARδ (Homo sapiens, UniProt Q03181).
T2 construct: a Gal4-Luciferase reporter is co-transfected
T2 sequence (Q03181 171-441 limits assumed): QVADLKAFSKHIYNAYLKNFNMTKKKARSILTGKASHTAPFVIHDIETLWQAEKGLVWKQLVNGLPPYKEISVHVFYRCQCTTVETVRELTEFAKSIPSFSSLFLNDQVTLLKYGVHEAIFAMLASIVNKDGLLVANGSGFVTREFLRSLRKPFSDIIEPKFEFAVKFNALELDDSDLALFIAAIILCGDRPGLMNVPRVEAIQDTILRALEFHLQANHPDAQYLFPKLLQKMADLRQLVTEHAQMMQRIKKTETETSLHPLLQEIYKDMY
The test is described as follows: Transfection Assay for PPARδ Receptors (PPAR-Gal4 / Gal4-Luciferase reporter in HEK293 cells). The format is cell-based. The note with it: for PPARδ FI: fold induction, PPARδ standard: FI = 36.1; for EC50: values in square brackets. How it is done: Transfection Assay for PPARδ Receptors
HEK293 cells were grown in DMEM/F-12 Media supplemented with 10% FBS and glutamine (GIBCOBRL). The cells were co-transfected with DNA for PPAR-Gal4 receptor and Gal4-Luciferase Reporter using the DMRIE-C Reagent. On the following day, the DNA-containing medium were replaced with 5% Charcoal treated FBS growth medium. After six hours, cells were seeded in 96 well plate and incubated at 37° C. in CO2 incubator overnight. Cells were challenged by test compounds and incubated for 24 hours at 37° C. in 5% CO2 incubator. Luciferase activity was assayed using the Steady-Glo Luciferase Assay Kit from Promega. DMRIE-C Reagent was purchased from GIBCO Cat. No.10459-014. OPTI-MEM I Reduced Serum Medium was purchased from GIBCO Cat. No. 31985. Steady-Glo Luciferase Assay Kit was obtained from Promega Part# E254B.
In general terms: In a reporter assay the amount or activity of a reporter protein is the signal.

Setting [1] is: H4IIE rat hepatoma cells, 24 hours, read-out: PPARα EC50.
[2] abbreviates: in section F, target not named there, values match the PPARα column, read-out: EC50.

Structures are written as SMILES. Read-outs that look alike come from different tables or passages of the source. Where only a bound is given, the exact number is not on record here.

The results in this text go back to patent US20040171680A1, “Treating Syndrome X with substituted tetralins and indanes” (priority 2002, published 2004).

A word on the EC50: it is the concentration giving half of the maximal effect. Turning to `CCN(C(=O)Nc1cccc(OC(F)(F)F)c1)C1Cc2ccc(SC(C)(C)C(=O)O)cc2C1` (stereo not drawn) [Example 26, 2-{2-[1-Ethyl-3-(3-trifluoromethoxyphenyl)ureido]indan-5-ylsulfanyl}-2-methylpropionic acid], at PPARα (setting [1]), the concentration giving a half-maximal response (EC50) worked out at 130 nM. Further, the “PPARδ FI” value on PPARδ stood at 2.1.

As to `CC(C)(Sc1ccc2c(c1)CC(N(CCCC1CCCC1)C(=O)Nc1ccc(OC(F)(F)F)cc1)C2)C(=O)O` (stereo not drawn) [Example 28, 2-{2-[1-(3-Cyclopentylpropyl)-3-(4-trifluoromethoxyphenyl)ureido]indan-5-ylsulfanyl}-2-methylpropionic acid], at PPARα (setting [1]), the half-maximal effective concentration (EC50) was determined as 323 nM. In addition, on PPARδ, the “PPARδ FI” value is 8.2.

`CCCN(C(=O)Nc1ccc(OC)cc1)C1Cc2ccc(SC(C)(C)C(=O)O)cc2C1` (stereo not drawn) [Example 32, 2-{2-[3-(4-Methoxyphenyl)-1-propylureido]indan-5-ylsulfanyl}-2-methylpropionic acid]: the EC50 at PPARα (setting [1]) came out at 497 nM. For the same compound, the “PPARδ FI” value on PPARδ was 1.5.

In the case of `CCCN(C(=O)Nc1cc(C)cc(C)c1)C1Cc2ccc(SC(C)(C)C(=O)O)cc2C1` (stereo not drawn) [Example 33, 2-{2-[3-(3,5-Dimethylphenyl)-1-propylureido]indan-5-ylsulfanyl}-2-methylpropionic acid], the EC50 at PPARα (setting [1]) was determined as 537 nM. On PPARδ, the “PPARδ FI” value stood at 0.8.

For the compound `CCCN(C(=O)Nc1ccc(C(F)(F)F)cc1)C1Cc2ccc(SC(C)(C)C(=O)O)cc2C1` (stereo not drawn) [Example 35, 2-Methyl-2-{2-[1-propyl-3-(4-trifluoromethylphenyl)ureido]indan-5-ylsulfanyl}-propionic acid], at PPARα (setting [1]), the EC50 stood at 772 nM. For the same compound, at PPARδ, the “PPARδ FI” value is recorded as 5.6.

Turning to `CC(C)(Sc1ccc2c(c1)CC(N(CCCC1CCCC1)C(=O)Nc1ccccc1)C2)C(=O)O` (stereo not drawn) [Example 37, 2-{2-[1-(3-Cyclopentylpropyl)-3-phenylureido]indan-5-ylsulfanyl}-2-methylpropionic acid], at PPARα (setting [1]), the half-maximal effective concentration (EC50) came to 838 nM. Also, the “PPARδ FI” value at PPARδ amounted to 1.9.

With `CCCCCN(C(=O)Nc1ccc2ccccc2c1)C1Cc2ccc(SC(C)(C)C(=O)O)cc2C1` (stereo not drawn) [Example 39, 2-Methyl-2-[2-(3-naphthalen-2-yl-1-pentylureido)indan-5-ylsulfanyl]propionic acid], the EC50 on PPARα (setting [1]) worked out at 1000 nM. The “PPARδ FI” value on PPARδ is reported as 9.3.

In the case of `CCCN(C(=O)Nc1ccc(OC(F)(F)F)cc1)C1CCc2ccc(SC(C)(C)C(=O)O)cc2C1` (stereo not drawn) [Example 46, 2-Methyl-2-{7-[1-propyl-3-(4-trifluoromethoxyphenyl)ureido}-5,6,7,8-tetrahydronaphthalen-2-ylsulfanyl}propionic acid], the concentration for a half-maximal effect (EC50) on PPARα (setting [1]) was found to be 1390 nM. For the same compound, at PPARδ, the “PPARδ FI” value came to 6.0.

Consider `CCN(C(=O)Nc1ccc(OC(F)(F)F)cc1)C1CCc2cc(SC(C)(C)C(=O)O)c(OC)cc2C1` (stereo not drawn) [Example 47, 2-{6-[1-Ethyl-3-(4-trifluoromethoxyphenyl)ureido]-3-methoxy-5,6,7,8-tetrahydronaphthalen-2-ylsulfanyl}-2-methylpropionic acid], for which the EC50 was 45 nM on PPARα (setting [2]) and above 3000 nM on PPARδ.

Turning to `CCN(C(=O)Nc1ccc(OC(F)(F)F)cc1)C1CCc2cc(OC(C)(C)C(=O)O)ccc2C1` (stereo not drawn) [Example 48, 2-{6-[1-Ethyl-3-(4-trifluoromethoxyphenyl)ureido]-5,6,7,8-tetrahydronaphthalen-2-yloxy}-2-methylpropionic acid], the 50% effective concentration (EC50) on PPARα (setting [1]) is 14 nM; on PPARδ, above 3000 nM.

Consider `CCN(C(=O)Nc1ccc(OC(F)(F)F)cc1)C1CCc2cc(SC(C)(C)C(=O)O)c(Cl)cc2C1` (stereo not drawn) [Example 51, 2-{6-[1-Ethyl-3-(4-trifluoromethoxyphenyl)ureido]-3-chloro-5,6,7,8-tetrahydronaphthalen-2-ylsulfanyl}-2-methylpropionic acid], for which the 50% effective concentration (EC50) at PPARα (setting [2]) was 27 nM; at PPARδ it was above 10000 nM.

Take `CCN(C(=O)Nc1ccc(OC(F)(F)F)cc1)C1CCc2cc(SC(C)(C)C(=O)O)c(Br)cc2C1` (stereo not drawn) [Example 52, 2-{6-[1-Ethyl-3-(4-trifluoromethoxyphenyl)ureido]-3-bromo-5,6,7,8-tetrahydronaphthalen-2-ylsulfanyl}-2-methylpropionic acid]: the half-maximal effective concentration (EC50) was 17 nM on PPARα (setting [2]) and above 3000 nM at PPARδ.

With `CCN(C(=O)Nc1ccc(OC(F)(F)F)cc1)C1CCc2cc(SC(C)(C)C(=O)O)c(C)cc2C1` (stereo not drawn) [Example 53, 2-{6-[1-Ethyl-3-(4-trifluoromethoxyphenyl)ureido]-3-methyl-5,6,7,8-tetrahydronaphthalen-2-ylsulfanyl}-2-methylpropionic acid], the results for the EC50 on PPARα (setting [2]) and on PPARδ were 42 nM and 873 nM, respectively.

Turning to `CCN(C(=O)Nc1ccc(OC(F)(F)F)cc1)C1CCc2cc(SC(C)(C)C(=O)O)c(OC(F)(F)F)cc2C1` (stereo not drawn) [Example 54, 2-{6-[1-Ethyl-3-(4-trifluoromethoxyphenyl)ureido]-3-trifluoromethoxy-5,6,7,8-tetrahydronaphthalen-2-ylsulfanyl}-2-methylpropionic acid], the EC50 was 131 nM on PPARα (setting [2]) and above 3000 nM at PPARδ.

`CCN(C(=O)Nc1ccc(OC(F)(F)F)cc1)C1CCc2cc(SC(C)(C)C(=O)O)c(-c3ccccc3)cc2C1` (stereo not drawn) [Example 55, 2-{6-[1-Ethyl-3-(4-trifluoromethoxyphenyl)ureido]-3-phenyl-5,6,7,8-tetrahydronaphthalen-2-ylsulfanyl}-2-methylpropionic acid]: the figures for the concentration giving a half-maximal response (EC50) at PPARα (setting [2]) and at PPARδ were 545 nM and 1720 nM, respectively.
